Test results: patent publication US8927715B2, “Inhibitors of 11β-hydroxysteroid dehydrogenase type 1” (Vitae Pharmaceuticals, Inc., priority 2006, dated 2015)
pIC50: −log10 of the molar value.

Molecular target: T1, human 11β-HSD1 (Homo sapiens, UniProt P28845)
Test: Scintillation Proximity Assay: inhibition of purified 11β-HSD1 (Biological Test Example 1)
Type: biochemical
Design: made in house; host or cells: E. coli
Details: purified recombinant 11β-HSD1, SPA; read-out: Biological Test Example 1 (IC50 class)
Experimental: The inhibition of purified 11β-HSD1 by compounds of Formula I or I* is measured using a Scintillation Proximity Assay. All reactions are carried out at room temperature in 96 well flexible Microbeta reaction plates. First, 1 μL of a 0.1 mM solution of a compound of Formula I or I* is mixed in DMSO diluted in half-log increments (8 points) starting at 1 μM final concentration. To this dot is added 50 μL of substrate solution (50 mM HEPES, pH 7.4, 100 mM KCl, 5 mM NaCl, 2 mM MgCl2 containing 20 μM ^3H cortisone, 1 mM NADPH). […] The reaction is then incubated for 90 minutes, and stopped by adding 50 μl of SPA bead mix (18-β-glycyrrhetinic acid, 10 μM final, 5 mg/ml protein A coated YSi SPA beads, and 1 μg/ml α-cortisol antibody (East Coast Biologics)). The plate is shaken for 120 minutes, and the radioactivity corresponding to ^3H cortisol is measured on a Wallac Microbeta.
Target sequence in this assay (P28845 whole entry, species assumed): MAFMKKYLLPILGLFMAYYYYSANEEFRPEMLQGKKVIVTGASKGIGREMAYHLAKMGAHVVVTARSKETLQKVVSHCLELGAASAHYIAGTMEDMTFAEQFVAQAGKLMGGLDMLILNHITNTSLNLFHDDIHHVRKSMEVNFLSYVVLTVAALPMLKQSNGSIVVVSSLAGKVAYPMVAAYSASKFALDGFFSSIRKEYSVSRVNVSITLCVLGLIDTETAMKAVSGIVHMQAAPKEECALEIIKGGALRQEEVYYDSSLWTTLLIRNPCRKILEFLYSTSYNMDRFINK

pIC50 | Compound
6.00 to 7.30 | CC(C)(C)OC(=O)N1CCC2(CCCN(C(=O)NC3C4CC5CC(C4)CC3C5)C2)C1 (racemic) [Example 10, (±)-tert-Butyl 7((2-adamantyl)carbamoyl)-2,7-diazaspiro[4.5]decane-2-carboxylate]
> 7.30 | O=C(O)C1CC2(CCN(C(=O)NC3C4CC5CC(C4)CC3C5)CC2)c2ccccc21 (racemic) [Example 12, (±)-1′-((2-Adamantyl)carbamoyl)-2,3-dihydrospiro[indene-1,4′-piperidine]-3-carboxylic acid]
6.00 to 7.30 | O=C(O)C1CC2(CCN(C(=O)NC3C4CC5CC(C4)CC3C5)CC2)Oc2ccccc21 (racemic) [Example 13, (±)-1′-((2-Adamantyl)carbamoyl)spiro[chroman-2,4′-piperidine]-4-carboxylic acid]
> 7.30 | COC(=O)CC1CC2(CCN(C(=O)OC3C4CC5CC(C4)CC3C5)CC2)c2ccccc21 (racemic) [Example 24, (±)-2-Adamantyl 3-(2-methoxy-2-oxoethyl)-2,3-dihydrospiro[indene-1,4′-piperidine]-1′-carboxylate]
> 7.30 | CNC(=O)CC1CC2(CCN(C(=O)OC3C4CC5CC(C4)CC3C5)CC2)c2ccccc21 (racemic) [Example 26, (±)-2-Adamantyl 3-(2-(methylamino)-2-oxoethyl)-2,3-dihydrospiro[indene-1,4′-piperidine]-1′-carboxylate]
> 7.30 | CC(C)(C)OC(=O)N1CC2(CCN(C(=O)NC3C4CC5CC(C4)CC3C5)CC2)c2ccccc21 (stereo not shown) [Example 1, Tert-butyl 1′-((2-adamantyl)carbamoyl)spiro[indoline-3,4′-piperidine]-1-carboxylate]
> 7.30 | O=C(NC1C2CC3CC(C2)CC1C3)N1CCC2(CC1)CNc1ccccc12 (stereo not shown) [Example 2, N-(2-Adamantyl)spiro[indoline-3,4′-piperidine]-1′-carboxamide]
> 7.30 | CC(=O)N1CC2(CCN(C(=O)NC3C4CC5CC(C4)CC3C5)CC2)c2ccccc21 (stereo not shown) [Example 7, 1-Acetyl-N-(2-adamantyl)spiro[indoline-3,4′-piperidine]-1′-carboxamide]
6.00 to 7.30 | CC(C)(C)OC(=O)N1CCC2(CCN(C(=O)NC3C4CC5CC(C4)CC3C5)CC2)CC1 (stereo not shown) [Example 8]
6.00 to 7.30 | CC(C)(C)OC(=O)N1CCC2(CCN(C(=O)NC3C4CC5CC(C4)CC3C5)CC2)C1 (stereo not shown) [Example 9, tert-Butyl 8-((2-adamantyl)carbamoyl)-2,8-diazaspiro[4.5]decane-2-carboxylate]
> 7.30 | O=C(O)C1=CC2(CCN(C(=O)NC3C4CC5CC(C4)CC3C5)CC2)c2ccccc21 (stereo not shown) [Example 11, 1′-((2-Adamantyl)carbamoyl)spiro[indene-1,4′-piperidine]-3-carboxylic acid]
> 7.30 | CCOC(=O)C1=CC2(CCN(C(=O)NC3C4CC5CC(C4)CC3C5)CC2)c2ccccc21 (stereo not shown) [Example 15, Ethyl 1′-((2-adamantyl)carbamoyl)spiro[indene-1,4′-piperidine]-3-carboxylate]
> 7.30 | CS(=O)(=O)N1CC2(CCN(C(=O)NC3C4CC5CC(C4)CC3C5)CC2)c2ccccc21 (stereo not shown) [Example 19, N-(2-Adamantyl)-1-(methylsulfonyl)spiro[indoline-3,4′-piperidine]-1′-carboxamide]
> 7.30 | O=C(OC1C2CC3CC(C2)CC1C3)N1CCC2(CC1)CNc1ccccc12 (stereo not shown) [Example 20, 2-Adamantyl spiro[indoline-3,4′-piperidine]-1′-carboxylate]
> 7.30 | O=C(OC1C2CC3CC(C2)CC1C3)N1CCC2(CC1)CNc1ccc(F)cc12 (stereo not shown) [Example 21, 2-Adamantyl 5-fluorospiro[indoline-3,4′-piperidine]-1′-carboxylate]
> 7.30 | Cc1ccc2c(c1)C1(CCN(C(=O)OC3C4CC5CC(C4)CC3C5)CC1)CN2 (stereo not shown) [Example 22, 2-Adamantyl 5-methylspiro[indoline-3,4′-piperidine]-1′-carboxylate]
> 7.30 | O=C(O)CC1CC2(CCN(C(=O)OC3C4CC5CC(C4)CC3C5)CC2)c2ccccc21 (stereo not shown) [Example 25, 2-(1′-((2-Adamantyloxy)carbonyl)-2,3-dihydrospiro[indene-1,4′-piperidine]-3-yl)acetic acid]
> 7.30 | CC(C)(C)OC(=O)N1Cc2ccccc2C2(CCN(C(=O)NC3C4CC5CC(C4)CC3C5)CC2)C1 (stereo not shown) [Example 29, Tert-butyl 1′-((2-adamantyl)carbamoyl)-1H-spiro[isoquinoline-4,4′-piperidine]-2(3H)-carboxylate]
6.00 to 7.30 | CC(C)(C)OC(=O)N1CC2(CCN(C(=O)OC3C4CC5CC(C4)CC3C5)CC2)c2cc(F)ccc21 (stereo not shown) [Example 129, 1-Tert-butyl 1′-(2-adamantyl) 5-fluorospiro[indoline-3,4′-piperidine]-1,1′-dicarboxylate]
6.00 to 7.30 | Cc1ccc2c(c1)C1(CCN(C(=O)OC3C4CC5CC(C4)CC3C5)CC1)CN2C(=O)OC(C)(C)C (stereo not shown) [Example 130, 1-Tert-butyl 1′-(2-adamantyl) 5-methylspiro[indoline-3,4′-piperidine]-1,1′-dicarboxylate]

Compound | pIC50
CCOC(=O)CC1CC2(CCN(C(=O)NC3C4CC5CC(C4)CC3C5)CC2)Oc2ccccc21 (racemic) [Example 18, (±)-Ethyl 2-1′-((2-adamantyl)carbamoyl)spiro[chroman-2,4′-piperidine]-4-yl)acetate] | 6.00 to 7.30
CC(C)(C)OC(=O)N1CC2(CCN(C(=O)OC3C4CC5CC(C4)CC3C5)CC2)c2ccccc21 (stereo not shown) [Example 128, 1-Tert-butyl 1′-(2-adamantyl)spiro[indoline-3,4′-piperidine]-1,1′-dicarboxylate] | 6.00 to 7.30
(±)-2-(1′-(Cyclohexylcarbamoyl)spiro[chroman-2,4′-piperidine]-4-yl)acetic acid [Example 14] | 6.00 to 7.30
(±)-Ethyl 1′-(cyclohexylcarbamoyl)-2,3-dihydrospiro[indene-1,4′-piperidine]-3-carboxylate [Example 16] | > 7.30

Molecular target: T1, human 11β-HSD1
Test: Inhibition of a microsomal preparation of 11β-HSD1, SPA (Biological Test Example 2)
Type: biochemical
Design: expressed in transfected cells; host or cells: CHO cells (microsomes)
Details: read-out: Biological Test Example 2 (IC50 class)
Procedure, shortened: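 Microsomes from CHO cells overexpressing human 11β-HSD1 (10-20 μg/ml total protein) added after 10 min compound pre-incubation, then 90 min at room temperature. Stopped with 18β-glycyrrhetinic acid (10 nM), protein A SPA beads and anti-cortisol antibody; [3H]cortisol measured by SPA after 120 min.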
Target sequence in this assay (P28845 whole entry): as the sequence (P28845 whole entry, species assumed) above

pIC50 | Compound
> 7.30 | CN1CCN(C(=O)CC2CC3(CCN(C(=O)NC4C5CC6CC(C5)CC4C6)CC3)c3c(Br)cccc32)CC1 (stereo not shown) [Example 112, 7-Bromo-N-(2-adamantyl)-3-(2-(4-methylpiperazin-1-yl)-2-oxoethyl)-2,3-dihydrospiro[indene-1,4′-piperidine]-1′-carboxamide]
> 7.30 | CN(C)CCCC(=O)N1Cc2ccccc2C2(CCN(C(=O)NC3C4CC5CC(C4)CC3C5)CC2)C1 (stereo not shown) [Example 113, N-(2-Adamantyl)-2-(4-(dimethylamino)butanoyl)-2,3-dihydro-1H-spiro[isoquinoline-4,4′-piperidine]-1′-carboxamide]
> 7.30 | CN(C)CCNC(=O)CC1CC2(CCN(C(=O)NC3C4CC5CC(C4)CC3C5)CC2)c2c(Br)cccc21 (stereo not shown) [Example 114, 7-Bromo-N-(2-adamantyl)-3-(2-(2-(dimethylamino)ethylamino)-2-oxoethyl)-2,3-dihydrospiro[indene-1,4′-piperidine]-1′-carboxamide]
> 7.30 | CNCCN(C)C(=O)CC1CC2(CCN(C(=O)NC3C4CC5CC(C4)CC3C5)CC2)c2c(Br)cccc21 (stereo not shown) [Example 115, 7-Bromo-N-(2-adamantyl)-3-(2-(methyl(2-(methylamino)ethyl)amino)-2-oxoethyl)-2,3-dihydrospiro[indene-1,4′-piperidine]-1′-carboxamide]
> 7.30 | CN(C)CCN(C)C(=O)CC1CC2(CCN(C(=O)NC3C4CC5CC(C4)CC3C5)CC2)c2c(Br)cccc21 (stereo not shown) [Example 116]
> 7.30 | CN(C)CCCNC(=O)CC1CC2(CCN(C(=O)NC3C4CC5CC(C4)CC3C5)CC2)c2c(Br)cccc21 (stereo not shown) [Example 117, 7-Bromo-N-(2-adamantyl)-3-(2-(3-(dimethylamino)propylamino)-2-oxoethyl)-2,3-dihydrospiro[indene-1,4′-piperidine]-1′-carboxamide]
> 7.30 | O=C(CC1CC2(CCN(C(=O)NC3C4CC5CC(C4)CC3C5)CC2)c2c(Br)cccc21)NCCN1CCNCC1 (stereo not shown) [Example 119, 7-Bromo-N-(2-adamantyl)-3-(2-oxo-2-(2-(piperazin-1-yl)ethylamino)ethyl)-2,3-dihydrospiro[indene-1,4′-piperidine]-1′-carboxamide]
> 7.30 | O=C(CC1CC2(CCN(C(=O)NC3C4CC5CC(C4)CC3C5)CC2)c2c(Br)cccc21)NCCN1CCOCC1 (stereo not shown) [Example 120, 7-Bromo-N-(2-adamantyl)-3-(2-(2-morpholinoethylamino)-2-oxoethyl)-2,3-dihydrospiro[indene-1,4′-piperidine]-1′-carboxamide]
> 7.30 | CN1CCN(CCNC(=O)CC2CC3(CCN(C(=O)NC4C5CC6CC(C5)CC4C6)CC3)c3c(Br)cccc32)CC1 (stereo not shown) [Example 121, 7-Bromo-N-(2-adamantyl)-3-(2-(2-(4-methylpiperazin-1-yl)ethylamino)-2-oxoethyl)-2,3-dihydrospiro[indene-1,4′-piperidine]-1′-carboxamide]

Compound | pIC50
CN(C)CCCCNC(=O)CC1CC2(CCN(C(=O)NC3C4CC5CC(C4)CC3C5)CC2)c2c(Br)cccc21 (stereo not shown) [Example 118, 7-Bromo-N-(2-adamantyl)-3-(2-(4-(dimethylamino)butylamino)-2-oxoethyl)-2,3-dihydrospiro[indene-1,4-r-piperidine]-1′-carboxamide] | > 7.30
